According to patent US20060052369A1, “Compositions and methods relating to novel compounds and targets thereof” (The Regents of the University of Michigan, priority 2004, published 2006):
Like-named read-outs stand apart in the source and are kept apart here.

Key:
F1Fo-ATPase = F1Fo-ATPase (Homo sapiens, UniProt P05496); details: cited from earlier work
rodents = details: two daily doses; cited from earlier work
[1] = biological target: T1, ATPase of sub-mitochondrial particles (mitochondrial F1Fo-ATPase) (Bos taurus, UniProt P13621); experiment: NADH-coupled ATP hydrolysis kinetics assay with sub-mitochondrial particles; assay type: biochemical, bovine; details: for mechanism of inhibition: ATP hydrolysis
T1 construct: from tissue; host or cells: sub-mitochondrial particles (SMPs)
Protocol: The mechanism of inhibition for ATP hydrolysis induced by Bz-423 and derivatives of Bz-423 was assayed using an NADH-coupled assay. The ATP hydrolytic activity of the sub-mitochondrial particles (hereinafter SMPs) was measured by coupling the production of ADP to the oxidation of NADH via the pyruvate kinase and lactate dehydrogenase reaction. Briefly, ATP hydrolysis SMPs (0.8 mg; 7.14 μg/well) were added to hydrolysis buffer (100 mM Tris-HCl, pH 8.0 at 25° C., 4 mM MgCl2, […], 0.2 mM EDTA) and vortexed. 125 μL of this suspension was added to each well of a 96-well plate containing 50× drug or DMSO vehicle control (1% DMSO, final). The 96-well plate was then placed at 30° C. in a Molecular Devices Versamax tunable microplate reader and allowed to incubate for 5 min. During this 5 min, a substrate-coupling mixture was prepared (containing X mM ATP, 0.2 mM NADH, 1 mM phosphoenolpyruvate (PEP), 2 U/mL pyruvate kinase (PK), and 2 U/mL lactate dehydrogenase (LDH) in hydrolysis buffer). The rate of hydrolysis was assayed over a range of ATP concentrations (0.1-4.0 mM) at each [Bz]. 125 μL of the substrate-coupling mixture was added to each well, and the rate of NADH oxidation was monitored for 10 min at 340 nm, 30° C. The measured decrease in absorbance over time (in OD/min) was converted to μmol ATP hydrolyzed/min/mg SMP (ε=6220). The velocity data was plotted versus [ATP] for each concentration of [Bz] […] To obtain Ki values and confirm that an uncompetitive model of inhibition was the best fit for the data, three-dimensional fits of the velocity, [ATP], and [Bz] were performed to solve for Vmax, Km, Ki, and Ki* [where Ki indicates Bz binding to the ATPase with the third catalytic site empty (mixed-type inhibition only), and Ki* indicates binding when all three sites have substrate bound (uncompetitive and mixed-type inhibition)]. The following equations were used: Competitive Inhibition: Vo=Vmax[S]/((1+[I]/Ki)Km+[S]) Uncompetitive Inhibition: Vo=Vmax[S]/((1+[I]/Ki*)[S]+Km) Mixed or Noncompetitive Inhibition: Vo=Vmax[S]/((1+[I]/Ki)Km+(1+[I]Ki*)[S])
The results for the o-tert-Butyl derivative of Bz-423 are shown in Table 1 and confirm that this derivative binds the ATPase with an uncompetitive binding mechanism, similar to Bz-423.

[2] = Ki*, Uncompetitive Inhibition model fit, binding when all three sites have substrate bound
[3] = Ki, Competitive Inhibition model fit

In the case of `CC[C@H]1/C=C/C=C/C[C@@H](C)[C@H](O)[C@@](C)(O)C(=O)[C@@H](C)[C@H](O)[C@@H](C)C(=O)[C@@H](C)[C@H](O)[C@@H](C)/C=C/C(=O)O[C@@H]2[C@H](C)[C@H](CC1)O[C@]1(CC[C@H](C)[C@H](C[C@@H](C)O)O1)[C@H]2C` [oligomycin], the IC50 (F1Fo-ATPase) is listed as 0.01 µM and the LD50 (rodents) is listed as 0.5 mg/kg.

With `CN1C(=O)C(Cc2ccc(OC(C)(C)C)cc2)N=C(c2ccc(O)cc2)c2cc(Cl)ccc21` (centres unmarked) [o-tert-Butyl] the mechanism of inhibition [1] was “uncompetitive”, the Ki [1, 2] was 12.7 ± 1.1 µM and the Ki [1, 3] was 9.35 ± 2.4 µM. For the same compound, the Ki ([1]; Non-competitive Inhibition model fit, binding when all three sites have substrate bound, read-out: Ki*) was 12.7 ± 1.1 µM, the “effect on Km” value ([1]; secondary plots of [Bz] versus Km) was “decreased” and the “effect on Vmax” value ([1]; secondary plots of [Bz] versus Vmax) was “decreased”.

In the case of `CN1C(=O)C(Cc2ccc3ccccc3c2)N=C(c2ccc(O)cc2)c2cc(Cl)ccc21` (centres unmarked) [Bz-423], the mechanism of inhibition [1] is reported as “uncompetitive”, the Ki [1, 2] is reported as 19 ± 5.8 µM and the Ki [1, 3] is reported as 13.32 ± 0.1 µM.
